Experimental data reported in patent US20020055512A1, “Compositions for delivery of a cortisol antagonist” (CORTENDO AB., priority 2000, published 2002).

Assay: Solubility of ketoconazole in lipid excipients (observation of undissolved crystals)
Format: physicochemical
Conditions: ambient room temperature; estimated
Method: The solubility of ketoconazole in glycerol monooleate was assessed at 37° C. according to the following method. 2 g samples of ketoconazole (USP) and glycerol monooleate were mixed together in various proportions and put on a magnetic stirrer at 37° C. Samples containing 1, 3 and 5 wt. % of ketoconazole were investigated for the observation of ketoconazole crystals. Samples containing 1 wt. % ketoconazole were completely dissolved after less than 18 h but more than 2 h. Samples containing 3 wt % ketoconazole were almost homogeneous after 48 h, after which no further change of the sample took place. […] Thus, at 37° C. ketoconazole has a limited solubility in glycerol monooleate. It is estimated to be between 1 and 3 wt. %.
The solubility of ketoconazole in oleic acid was assessed at ambient room temperature using the method described in Example 1. Samples containing 5, 10, 15 and 33 wt. % of ketoconazole were mixed with oleic acid and the appearance of undissolved ketoconazole was investigated after 24 and 48 h. After 24 hours samples containing 5 wt. % ketoconazole were completely dissolved and after 48 h samples containing 10 wt. % of ketoconazole were completely homogenous and all ketoconazole was dissolved. Thus the solubility of ketoconazole in oleic acid is estimated to be about 10 wt. %.

solubility of ketoconazole in oleic acid: about 10 wt. %
Compound: CC(=O)N1CCN(c2ccc(OCC3COC(Cn4ccnc4)(c4ccc(Cl)cc4Cl)O3)cc2)CC1 (stereo not shown) [ketoconazole, Ketoconazole]
